Test results reported in PubChem BioAssay AID179 (DTP/NCI, 2004).
Values joined by “and” are separate entries in the source; they are usually repeats but may differ in a detail not shown here. Identical values can stand only once. Active and inactive are the calls of the source.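 The calls were made as follows: active = compounds giving half or more protection of infected cells from virus-caused growth loss, again on retest; inactive = the rest.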 Where a SMILES comes first, the peptide text is derived from it.

Test system: CEM cells HIV-1 protection, formazan growth assay
Test: NCI AIDS Antiviral Assay
Conditions: for IC50: measured here: growth of uninfected CEM cells
How it was run: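 Screen of anti-HIV-1 activity in human CEM cells using a formazan-based growth measurement at five drug concentrations. Hits with 50% or greater protection were repeated, and confirmation required reproducible complete protection.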

Row | SMILES | EC50 | IC50 | outcome
1 | CN=c1nc2sc3c(c2c(NC(=S)NC)s1)CCCC3 | 77.6 µM | > 200 µM | 
2 | c1ccc2c(c1)Sc1ccccc1N2CCCN1c2ccccc2Sc2ccccc21 | > 50.1 µM | > 50.1 µM | 
3 | CC1CC(C)(C)C2=NCCN21 (configuration not stated) | > 1620 µM | > 1620 µM | 
4 | COc1ccc(-c2c(C(C)=O)c(-c3ccccc3)n(C3OC(COC(C)=O)C(OC(C)=O)C(OC(C)=O)C3OC(C)=O)c(=S)c2C#N)cc1O (configuration not stated) | > 200 µM | 24.5 µM and 38.9 µM | 
5 | [B-][N+]1(C)CC[N+]([B-])(C)CC1 (configuration not stated) | > 200 µM | > 200 µM | 
6 | NC(N)=NCCCC(NCc1c2ccccc2nc2ccccc12)C(=O)O (configuration not stated) |  |  | inactive
7 | Cc1ncc(CC#N)c2c1OC(C)(C)OC2 | > 1150 µM | > 1150 µM | 
8 | COc1cc(C2c3cc4c(cc3OC(N3CCCCC3)C2C)OCO4)cc(OC)c1OC (configuration not stated) | > 50.1 µM | 0.398 µM | 
9 | CC[C@@H](C)[C@H](NC(=O)[C@H](CCCCN)NC(=O)[C@H](CCCCN)NC(=O)[C@H](CC(C)C)NC(=O)[C@@H]1CCCN1C(=O)[C@@H]1CCCN1C(=O)[C@@H](NC(=O)[C@H](CC(C)C)NC(=O)[C@H](CCCCN)NC(=O)[C@H](CCCN=C(N)N)NC(=O)[C@@H](N)C(C)C)[C@@H](C)O)C(=O)O |  |  | inactive
10 | COc1ccc(-c2cc(=O)c3c(C)cc(O)cc3o2)cc1 | 81.3 µM | 115 µM | 
11 | COC(=O)/C=C\C(C#N)(C#N)N=Cc1ccc(Br)s1 | > 2 µM | 1.1 µM | 
12 | Cc1cc(C[C@H]2O[C@@H]3OC(C)(C)O[C@@H]3[C@H]3OC(C)(C)O[C@H]32)c2ccccc2n1 | > 200 µM | 64.6 µM | 
13 | CC(NC(=O)CNC(=O)C(N)CO)C(=O)NC(CCC(=O)O)C(=O)NC(CCCCN)C(=O)NC(CO)C(=O)NC(CCCCN)C(=O)NC(CCCCN)C(=O)NC(CCCCN)C(=O)NCC(=O)NC(CO)C(=O)NC(CC(N)=O)C(=O)NC(C)C(=O)NC(Cc1cnc[nH]1)C(=O)NC(CO)C(=O)O (configuration not stated) (H-SGAEKSKKKGSNAHS-OH; configuration not given here) |  |  | inactive
14 | COCN(COC)c1nc(CCC(Br)(Br)Br)nc(N(COC)COC)n1 | > 83.2 µM | 37.2 µM | 
15 | COc1cc2c(cc1OC)/C(=C\c1ccccc1N)C(=O)OC2 |  |  | inactive
16 | CCC[CH2][Sn]([CH2]CCC)([O]C(=O)c1nccnc1N)[O]C(=O)c1nccnc1N | > 51.3 µM | 0.288 µM | 
17 | N=S(=O)(c1ccccc1)c1ccccc1 |  |  | inactive
18 | Nc1ncnc2c1ncn2CC1OC(CO)C(CO)O1 (configuration not stated) | > 891 µM | > 891 µM | 
19 | CCOC(=O)N1[C@@H]2CCC[C@@H]2C(=O)[C@@H]2CCC[C@@H]21 | > 200 µM | > 200 µM | 
20 | CC1=NN(c2ccccc2)C(=O)C1N=Nc1ccc(S(=O)(=O)Nc2occ(C)c2C)cc1 (configuration not stated) |  |  | inactive
21 | O=C1N/C(=N\N=C\c2ccccc2)C2(CCCCC2)O1 | > 200 µM | 97.7 µM | 
22 | CNC(=O)C1CCC(=O)N1CN(C(C)=O)c1ccccc1 (configuration not stated) | > 200 µM | > 200 µM | 

Row | SMILES | EC50 | IC50 | outcome
23 | CCOC(=O)NN(C(=O)OCC)c1c(C)cc(C)cc1C | > 200 µM | > 200 µM | 
24 | N#CC(NCc1cccc(CNC(C#N)c2ccccc2)c1)c1ccccc1 (configuration not stated) | > 200 µM | 89.1 µM | 
25 | c1ccc2[nH]c(-c3nc4ccccc4s3)nc2c1 | > 15.1 µM | 5.37 µM | 
26 | CC(N)CNCCCNCCNCCCNCO (configuration not stated) | > 100 µM | > 100 µM | 
27 | CCOC(=O)C(=Cc1ccccc1F)C(=O)OCC | > 135 µM | 25.7 µM | 
28 | CN(C)c1ccc(C=Nc2ccc(SSc3ccc(N=Cc4ccc(N(C)C)cc4)cc3)cc2)cc1 | > 200 µM | 25.1 µM | 
29 | CCN(CC)CCC(=O)c1ccc(Cl)cc1 | > 912 µM | 12.3 µM | 
30 | Nc1ccc(C(=O)NN2C(=O)C(Cl)C2c2ccccc2O)cc1 (configuration not stated) | > 200 µM | 29.5 µM | 
31 | [N-]=[N+]=NC(=O)c1ccc(S(=O)(=O)c2ccc(F)cc2)cc1 |  |  | inactive
32 | CC1(C)CC(=O)C2=C(C1)OC1=C(C(=O)CC(C)(C)C1)C2CC(c1ccccc1)c1ccc(O)c(O)c1O (configuration not stated) | > 200 µM | 8.51 µM | 
33 | C=CC(OCC)(OCC)OCC | > 1450 µM | > 1450 µM | 
34 | CCC1C(C#N)=C(O)NC(O)=C1C#N | > 1290 µM | 813 µM | 
35 | Cc1nc(-c2cc3ccccc3oc2=O)cs1 |  |  | inactive
36 | COc1ccc(NC(=S)Nc2ccccn2)cc1 | > 200 µM | > 200 µM | 
37 | CC(=O)OC1CC[C@@]2(C)C(C1)CC(OC(C)=O)[C@@H]1C2CC(OC(C)=O)[C@]2(C)C(C(C)CC=C(c3ccc(Cl)cc3)c3ccc(Cl)cc3)CCC12 (some centres not stated) | > 200 µM | 57.5 µM | 
38 | O=C1[C@H](O)[C@@H]2CCC[C@@]23CCCN13 | > 200 µM | > 200 µM | 
39 | C=CCCON(C(=O)OC(C)(C)C)C(C)(C)C | > 200 µM | > 200 µM | 
40 | CN1C(=O)/C(=C2\SC(=O)N(CN3CCOCC3)C2=O)c2ccccc21 | > 200 µM | 37.2 µM | 
41 | COc1cc2c(cc1OC)C(=O)N1CCCC1CS2 (configuration not stated) | > 200 µM | > 200 µM | 
42 | C[n+]1c(-c2ccc(/C=N\Nc3nnc(S)n3/N=C/c3ccc(-c4cn5ccccc5[n+]4C)cc3)cc2)cn2ccccc21 | 66.1 µM | 67.6 µM | 
43 | Cc1c(S(=O)c2cc(C(C)(C)C)c(O)c(CN3CCCC3)c2C)cc(C(C)(C)C)c(O)c1CN1CCCC1 | > 200 µM | 13.5 µM | 
44 | C[N+](C)(C)C1C=CCC2=C1S(=O)(=O)C2 (configuration not stated) | > 741 µM | 355 µM | 

Row | SMILES | EC50 | IC50 | outcome
45 | O=S(OO)c1cc(Cl)c(O)c(Cl)c1 (configuration not stated) | > 1020 µM | > 1020 µM | 
46 | CCOC(=O)C1(C)CCc2sc(N)c(C#N)c21 (configuration not stated) | 83.2 µM | 158 µM | 
47 | Nc1c(S(=O)(=O)O)cc2cc(S(=O)(=O)O)ccc2c1N=Nc1ccc(CCc2ccc(N=Nc3c(N)c(S(=O)(=O)O)cc4cc(S(=O)(=O)O)ccc34)cc2S(=O)(=O)O)c(S(=O)(=O)O)c1 | 7.59 µM | 60.3 µM | 
48 | CCCCCC(C)SC1(C(=O)OC)CC(OC(C)=O)C(NC(C)=O)C([C@H](OC(C)=O)[C@@H](COC(C)=O)OC(C)=O)O1 (some centres not stated) | > 200 µM | 63.1 µM | 
49 | CCSc1nnc(-c2ccccc2)nc1Cc1ccc(OC)cc1 | > 14.8 µM | > 14.8 µM | 
50 | Cc1cc2c(c3oc(=O)ccc13)[C@@H](OC(=O)C13CCC(C)(C(=O)O1)C3(C)C)[C@@H](OC(=O)C13CCC(C)(C(=O)O1)C3(C)C)C(C)(C)O2 (some centres not stated) | 0.38 µM | 2 µM | 
51 | C/C(=N\NC(C)(C)C)c1sc(-c2nc(C)c(/C(C)=N/NC(C)(C)C)s2)nc1C | > 44.7 µM | > 44.7 µM | 
52 | CC(=O)OCC1OC(n2cnc3nc(Br)[nH]c(=O)c32)C(OC(C)=O)C1OC(C)=O (configuration not stated) | 61.7 µM | > 200 µM | 
53 | Cn1c(=O)nc2n(-c3ccc(F)cc3)c3ccccc3nc-2c1=O |  |  | inactive
54 | Cc1c(NC(=O)CSC(=S)N2CCN(Cc3ccccc3)CC2)c(=O)n(-c2ccccc2)n1C |  |  | inactive
55 | COc1ccc([C@@]23Oc4cc(OC)cc(OC)c4[C@]2(O)[C@H](O)[C@H](C(=O)N(C)C)[C@H]3c2ccccc2)cc1 | > 200 µM | 0.0631 µM | 
56 | O=c1[nH]c(O)c(/C=N/C(=S)Nc2ccccc2)c(=O)[nH]1 |  |  | inactive
57 | Cc1cccc(C(C)C)c1NC(=O)CC1C(=O)Nc2ccccc2S1(=O)=O (configuration not stated) | > 7.08 µM | > 7.08 µM | 
58 | O/N=C(\c1ccccc1)N1CCCCC1 |  |  | inactive
59 | CCOC(=O)c1ccc(CSc2ccccc2)c([N+](=O)[O-])c1 | > 58.9 µM | > 58.9 µM | 
60 | N#Cc1ccccc1NC(=O)C(=O)C1NC(=S)NC1=O (configuration not stated) |  |  | inactive
61 | COc1cc2oc(-c3ccc(O)cc3)c(OC3OC(C)C(O)C(O)C3O)c(=O)c2c(O)c1OC (configuration not stated) |  |  | inactive
62 | CC(=O)CC(=O)Nc1ccccc1C(F)(F)F | > 204 µM | > 204 µM | 
63 | CCOC(=O)c1sc2nc(-c3ccccc3)nn2c1CBr | > 200 µM | 1.07 µM | 
64 | CCCCCCCCCCC(C)CCCCCCC(=O)OCC(COP(=O)([O-])OCC[N+](C)(C)C)OC(=O)CCCCCCC(C)CCCCCCCCCC (configuration not stated) |  |  | inactive
65 | CCN(CC)CCC(=O)N1CCc2c([nH]c3ccccc23)C1c1cccnc1 (configuration not stated) | > 95.5 µM | > 95.5 µM | 
66 | N#Cc1cc([N+](=O)[O-])ccc1NC(=O)/C(=N\NC(=O)c1ccncc1)C(c1cnc2ccc([N+](=O)[O-])cc2n1)[N+](=O)[O-] (configuration not stated) | > 45.7 µM | 8.71 µM | 

Row | SMILES | EC50 | IC50 | outcome
67 | C[C@@]1(O)CC[C@]2(C)C3CCCC3[C@H]12 (some centres not stated) |  |  | inactive
68 | CC1(C(=O)O)CCC(C(=O)O)C(C)(C)O1 (configuration not stated) | > 200 µM | > 200 µM | 
69 | [O-]c1on[n+](-c2ccccc2)c1-c1ccccc1 | > 151 µM | 74.1 µM | 
70 | CCOC(=N)COC(=O)c1ccccc1 | > 200 µM | > 200 µM | 
71 | CCCCC1(CCO)C(=O)NC(=S)NC1=O | > 200 µM | > 200 µM | 
72 | O=C1C2C(C(=O)N1c1ccccc1)C1(c3ccccc3)CCC2(C(=O)c2ccccc2)O1 (configuration not stated) | > 200 µM | 50.1 µM | 
73 | O=C1c2ccccc2SC[C@@H]2CCCN12 | > 407 µM | > 407 µM | 
74 | O=C1C[C@]2(CC(O)CO)CC(O1)[C@@H](I)CC21OCCO1 (some centres not stated) | > 200 µM | > 200 µM | 
75 | C=C[C@]1(C)CC(=O)C(C(C)C=O)[C@]12C(=O)Oc1cccc(C)c1C2=O (some centres not stated) | > 200 µM | 13.5 µM | 
76 | Cn1c(=O)oc2nc(-c3ccccc3)cc(C(F)(F)F)c21 | > 200 µM | 19.1 µM | 
77 | CNC(C)C#N (configuration not stated) |  |  | inactive
78 | COc1ccc(N=NN2CCCC2)cc1 | > 200 µM | 15.5 µM | 
79 | O=C1C(CN(Cc2ccccc2)Cc2ccccc2)CCCC1CN(Cc1ccccc1)Cc1ccccc1 (configuration not stated) | > 26.3 µM | > 26.3 µM | inactive
80 | CN(C)CC/C(=N\Nc1ccc([N+](=O)[O-])cc1)c1ccccc1 |  |  | inactive
81 | O=C1c2scc(-c3ccccc3)c2-n2cccc21 | > 200 µM | 17.8 µM | 
82 | CC1CCC2(C(=O)O)CCC3(C)C(=CCC4C5(C)CCC(O)C(C)(C)C5CCC43C)C2C1C (configuration not stated) | > 200 µM | 14.8 µM | 
83 | Cn1c(=O)c(Cl)c(N=[N+]=[N-])c2ccccc21 | > 75.9 µM | 55 µM | 
84 | COC(=O)C1=COC(C)C2Cn3ccc4c5ccccc5nc-4c3CC12 (configuration not stated) | > 129 µM | 75.9 µM | 
85 | OCC(CO)C1c2cccc3ccc4cccc1c4c23 |  |  | inactive
